Source: article PMC8001000, “Pitfalls in the Immunochemical Determination of β-Lactam Antibiotics in Water” (Antibiotics, 2021)
Like-named read-outs stand apart in the source and are kept apart here.

Assays:
[1] = test system: monoclonal mouse anti-AMX antibody A1463 (clone 1.BB.832); test: indirect competitive ELISA (calibration curves of β-lactams and hydrolysis products); format: binding; settings: for IC50: read-out: IC50 (ELISA calibration curve); for reduction of LOD by hydrolysis: after hydrolysis
Experimental: For the preparation of standards (calibrators), stock solutions of each compound with a mass concentration of approximately 1 g/L were prepared gravimetrically by weighing the respective compound and amount of solvent. Solvents for these stock solutions were ethanol for amoxicillin piperazine-2,5-dione and 3-(4-hydroxyphenyl)pyrazin-2-ol, or Milli-Q water for all other compounds. Standard solutions of each compound were prepared volumetrically by serial dilution of the respective stock solution in Milli-Q water. All standards and stock solutions were stored at 4 °C in the amber glass vials.
(§1) For hydrolysis, standards and samples were diluted in 0.1 M sodium hydroxide solution (1:1) the day before analysis in the assay, i.e., the day of coating (see below), and stored at 4 °C until the next day. Samples for reference analysis without hydrolysis were diluted in Milli-Q water (1:1) prior to analysis.
Each cavity of a 96-well microplate was coated with AMX-HSA (or alternatively AMX-BSA) in PBS (47.619 ng/L, 200 µL/well) and incubated for 18 h at RT with shaking at 750 rpm. Afterwards the plate was washed three times with washing buffer (1:60 dilution of washing buffer 60x in Milli-Q water) and the cavities were blocked with 0.1% (w/v) casein in PBS (200 µL/well) for 1 h at 750 rpm and RT. After repeated washing, standards/samples (100 µL/well) and primary antibody (dilution 1:20,000 in Tris for preliminary and cross-reactivity studies, in sample buffer pH 7.6 for sample analysis or in sample buffer pH 8.5 for reference analysis for degree of hydrolysis; 100 µL/well) were added and incubated for 1 h at 750 rpm and RT. Following another washing step, the plate was incubated with secondary antibody (95.238 ng/L, 200 µL/well) for 1 h at 750 rpm at RT. After final washing, cavities were filled with freshly prepared substrate solution (22 mL citrate buffer, 8.5 µL hydrogen peroxide solution, 550 µL TMB stock solution; 200 µL/well) and shaken for 10 min (preliminary and cross-reactivity studies) or 20 min (sample analysis, degree of hydrolysis) at 750 rpm for blue color development. […] Optical density was read at RT at a wavelength of 450 nm with reference at 620 nm. Data points were plotted in Origin® 2019 (OriginLab, Northampton, MA, USA), calibration curves were obtained by fitting a four-parameter logistic function to the measured data points and sample concentrations were determined by correlating concentration values of hydrolyzed standards with O.D. values of hydrolyzed and non-hydrolyzed samples. Each standard (8 per plate) and sample (24 per plate) was analyzed in triplicate with random distribution across the plate to reduce edge effects.

[2] = hydrolysis of AMX in standard solutions and water samples, followed by ELISA; format: physicochemical; settings: for reaction time after which no further shift in the calibration curve was observable (hydrolysis): 0.1 M NaOH
Experimental: While developing and optimizing an indirect competitive ELISA for the determination of AMX, we observed a significant shift in the calibration curves obtained for differently aged standard solutions (calibrators) of AMX in water. […] This shift reached its end point after two months of storage at 4 °C and could be ascribed to hydrolysis of the parent drug by hydrolyzing standard solutions of AMX in 0.1 M NaOH, which yielded a similar calibration curve in the ELISA (see Figure 2).
In order to examine the degree of hydrolysis of AMX in these samples, a parallel analysis in the ELISA without pretreatment with 0.1 M NaOH was carried out and concentration values determined with and without hydrolysis were compared. […] Because of the antibody’s lower affinity towards unhydrolyzed AMX (higher IC50), higher O.D. values are found which correlate with lower concentration values in the calibration curve. This was the case for all of the tested mineral waters after 20 h. Contrarily, for tap water samples (P1–P4) the analysis without hydrolysis led to higher concentration values than the assay featuring hydrolysis, implying that hydrolysis of AMX had already occurred in these samples. […] The reason for that may lie in general properties of tap water containing particles or metal ions, e.g., Cu^2+, which can serve as catalysts for AMX hydrolysis. Furthermore, the storage of the water samples might have an effect as tap water for sample preparation was collected and stored in a glass bottle whereas mineral water samples were taken directly from plastic bottles. Anyhow, the influence of the pH value of the water can be ruled out since the values were within a range from 6.6 to 8.0 and no general trend was observable. The same holds true for ionic constituents (see Supplementary Table S1).
as §1

[3] = non-hydrolyzed standard solutions (freshly prepared / before hydrolysis; pure compounds)
[4] = standards after alkaline hydrolysis (0.1 M NaOH, 24 h at 4 °C)

| Compound | IC50 [1, 3] [nM] | IC50 [1, 4] [nM] | also measured |
| --- | --- | --- | --- |
| CC1(C)S[C@@H]2[C@H](NC(=O)[C@H](N)c3ccccc3)C(=O)N2[C@H]1C(=O)O [AMP, ampicillin] | 1350 ± 130 | 36.2 ± 3.7 | – |
| CC1(C)S[C@@H]2[C@H](NC(=O)[C@H](N)c3ccc(O)cc3)C(=O)N2[C@H]1C(=O)O [AMX, amoxicillin] | 1470 ± 120 | 38.1 ± 3.6 | IC50 ([1]; standard solutions aged for 2 months at 4 °C in water): 52.2 ± 4.4 nM; reaction time after which no further shift in the calibration curve was observable (hydrolysis) ([2]; pH 12.5, 4 °C): 18 h; reaction time after which no further shift in the calibration curve was observable (hydrolysis) ([2]; pH 12.5, RT): 3 h; rate of hydrolysis in drinking water samples ([2]; spiked tap water vs bottled mineral water, after 20 h): much faster in tap water than in bottled mineral water; storage time until shift of calibration curve reached its end point (hydrolysis) ([2]; standard solutions in water, storage at 4 °C): two |
| CC1(C)SC(C2NC(=O)C(c3ccc(O)cc3)NC2=O)NC1C(=O)O (centres unmarked) [HP2, amoxicillin piperazine-2,5-dione] | 28700 | – | – |
| CC1(C)S[C@@H]2[C@H](NC(=O)Cc3ccccc3)C(=O)N2[C@H]1C(=O)O [PenG, penicillin G] | 700 ± 70 | 11.1 ± 1.7 | reduction of LOD by hydrolysis [1]: 85% |
| CC1(C)S[C@@H]2[C@H](NC(=O)COc3ccccc3)C(=O)N2[C@H]1C(=O)O [PenV, penicillin V] | 702 ± 66 | 11.6 ± 2.5 | reduction of LOD by hydrolysis [1]: 85% |

These reach a lower IC50 [1, 3]. Values come first.

| IC50 [1, 3] [nM] | IC50 [1, 4] [nM] | Compound | also measured |
| --- | --- | --- | --- |
| 11 ± 0.4 | 3.8 ± 0.5 | CC1(C)S[C@@H]2[C@H](NC(=O)C(C(=O)O)c3ccccc3)C(=O)N2[C@H]1C(=O)O (some centres unmarked) [CRB, carbenicillin] | – |
| 7.48 ± 0.58 | – | CC1(C)SC(C(NC(=O)[C@H](N)c2ccc(O)cc2)C(=O)O)NC1C(=O)O (some centres unmarked) [HP1, amoxicilloic acid] | fold higher affinity of the antibody than to the parent drug AMX ([1]; HP1 vs AMX): approximately 200 fold |
